# Test results from US12502380B2, “MrgprX2 antagonists for the treatment of inflammatory disorders” (Dermira, Inc., priority 2019, dated 2025).
# Molecular target: T1, Human MrgprX2 (Homo sapiens, UniProt Q96LB1)
# T1 construct: expressed in transfected cells
# T1 sequence (Q96LB1 1-330): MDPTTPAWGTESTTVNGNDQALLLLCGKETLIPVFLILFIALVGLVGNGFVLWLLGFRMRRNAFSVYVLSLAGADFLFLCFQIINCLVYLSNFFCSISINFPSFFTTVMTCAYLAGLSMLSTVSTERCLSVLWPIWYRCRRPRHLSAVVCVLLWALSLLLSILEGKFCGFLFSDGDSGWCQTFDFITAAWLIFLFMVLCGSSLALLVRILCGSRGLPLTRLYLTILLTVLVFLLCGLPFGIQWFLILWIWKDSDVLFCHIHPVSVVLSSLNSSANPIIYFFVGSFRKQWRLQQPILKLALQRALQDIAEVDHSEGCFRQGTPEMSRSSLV
# Test: Human MrgprX2 antagonist FLIPR intracellular calcium mobilization assay
# Format: cell-based
# Conditions: antagonist activity, recombinant hMrgpMRGPRX2 expressing cells, read-out: Human MrgprX2 Antagonist pIC50 (converted)
# Summary of the method: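 Antagonist activity was read as inhibition of intracellular calcium mobilization (FLIPR) in recombinant cells expressing human MrgprX2. Potency was also checked in LAD-2 human mast cells with endogenous receptor, and orthologue activity in cells expressing mouse MrgprB2, mouse MrgprA1, and gerbil, Chinese hamster and cynomolgus orthologues.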
row,SMILES,IC50
1,"CCN1CCC[C@@H]1C(=O)Nc1ncc(Oc2ccc(C#N)cc2)s1 [Compound E088, (2R)—N-[5-(4-cyanophenoxy)thiazol-2-yl]-1-ethyl-pyrrolidine-2-carboxamide]",3160 nM
2,NS(=O)(=O)N1CCC[C@H]1C(=O)Nc1ncc(Cc2cccc(F)c2)s1 [Compound E062],3980 nM
3,CC1(C(=O)Nc2ncc(Oc3cccc(Cl)c3)s2)CCOCC1 [Compound E079],3.98 nM
4,CC(C(=O)Nc1ncc(Cc2ccccc2F)s1)N1CCOCC1 (stereo not shown) [Compound E009],316 nM
5,"CC(C)C(=O)Nc1csc(C(=O)NCc2ccccc2)c1 [Compound E223, N-benzyl-4-(2-methylpropanoylamino)thiophene-2-carboxamide]",7940 nM
6,CC(C)C(=O)Nc1ncc(Oc2cccc(F)c2)s1 [Compound E076],1.26 nM
7,CC(C)C(=O)Nc1ncc(Oc2ccccc2F)s1 [Compound E075],31.6 nM
8,CC1(C(=O)Nc2ncc(Cc3ccccc3F)s2)CCN(S(N)(=O)=O)C1 (stereo not shown) [Compound E064],631 nM
9,CC1(C(=O)Nc2ncc(Cc3cccc(Cl)c3)s2)COC1 [Compound E036],316 nM
10,C[C@]1(C(=O)Nc2ncc(Cc3cccc(F)c3)s2)CCCN1S(N)(=O)=O [Compound E063],3.16 nM
11,N#CC1(C(=O)Nc2ncc(Cc3ccccc3F)s2)CCOCC1 [Compound E028],6310 nM
12,"CC1(C(=O)Nc2ncc(Cc3cccc(Cl)c3)s2)CCOC1 (stereo not shown) [Compound E033, N-[5-[(3-chlorophenyl)methyl]thiazol-2-yl]-3-methyl-tetrahydrofuran-3-carboxamide]",79.4 nM
13,CC(C)C(=O)Nc1ncc(Nc2ccccc2)s1 [Compound E072],1260 nM
14,"CS(=O)(=O)N1CCC[C@@H]1C(=O)Nc1ncc(Cc2cccc(F)c2)s1 [Compound E056, (2R)—N-[5-[(3-fluorophenyl)methyl]thiazol-2-yl]-1-methylsulfonyl-pyrrolidine-2-carboxamide]",1580 nM
15,CC(C)C(=O)Nc1nc(C#N)c(Oc2ccc(F)cc2)s1 [Compound E081],2510 nM
16,"O=C(Nc1ncc(Oc2ccccc2)s1)[C@H]1CCCN1 [Compound E085, (2R)—N-(5-phenoxythiazol-2-yl)pyrrolidine-2-carboxamide]",2510 nM

# Results, then the compound that gave them:
row,IC50,SMILES
1,1000 nM,CCN(C[C@H](C)O)C(=O)Nc1nc(C#N)c(Oc2ccc(F)cc2)s1 [Compound E207]
2,6.31 nM,C[C@@H](O)CN(C)C(=O)Nc1ncc(Cc2cc(F)cc(F)c2)s1 [Compound E133]
3,1580 nM,C[C@H](O)CN(C)C(=O)Nc1ncc(Cc2cccc(C#N)c2)s1 [Compound E144]
4,158 nM,CC1(C(=O)Nc2ncc(Cc3ccc(F)c(F)c3)s2)CCOCC1 [Compound E045]
5,398 nM,CC(O)CN(C)C(=O)Nc1ncc(Cc2ccccc2F)s1 (stereo not shown) [Compound E099]
6,39.8 nM,C[C@H](O)CN(C)C(=O)Nc1ncc(Cc2cccc(F)c2)s1 [Compound E101]
7,50.1 nM,C[C@H](O)CN(C)C(=O)Nc1ncc(Oc2cncc(F)c2)s1 [Compound E176]
8,251 nM,CCN(CCO)C(=O)Nc1ncc(Cc2cccc(F)c2)s1 [Compound E115]
9,39.8 nM,C[C@H](O)CN(C)C(=O)Nc1ncc(Oc2ccc(C#N)cc2)s1 [Compound E156]
10,39.8 nM,CCN(C[C@H](C)O)C(=O)Nc1ncc(Cc2cc(F)ccc2OC)s1 [Compound E139]
11,1580 nM,C[C@H](O)CN(C)C(=O)Nc1ncc(Oc2cccc(F)c2C#N)s1 [Compound E200]
12,3160 nM,"CC(C)(C)OC(=O)N1CCC[C@@H]1C(=O)Nc1ncc(Cc2cccc(F)c2)s1 [Compound E035, tert-butyl (2R)-2-[[5-[(3-fluorophenyl)methyl]thiazol-2-yl]carbamoyl]pyrrolidine-1-carboxylate]"
13,1.26 nM,C[C@H](O)CN(C)C(=O)Nc1ncc(Oc2cc(F)cc(C#N)c2)s1 [Compound E187]
14,0.631 nM,CCN(C[C@H](C)O)C(=O)Nc1ncc(Oc2ccccc2)s1 [Compound E155]
15,251 nM,C[C@H](O)CN(C)C(=O)Nc1ncc(Cc2ccccc2F)s1 [Compound E102]
16,794 nM,O=C(Nc1ncc(Cc2cccc(F)c2)s1)N1CC[C@@H](CO)C1 [Compound E113]
17,39.8 nM,CCN(C[C@H](C)O)C(=O)Nc1ncc(Cc2cc(F)cc(C#N)c2)s1 [Compound E146]
18,50.1 nM,CCN(C[C@H](C)O)C(=O)Nc1ncc(Oc2cccc(C#N)c2F)s1 [Compound E197]
